Reference: patent US20140357688A1, “METHOD FOR INHIBITING EZH2 EXPRESSION IN BREAST CANCER CELLS” (Yung Shin Pharm. Ind. Co., Ltd., priority 2013, published 2014)

Tests used:
Format in all cases: cell-based, human
[1] = system: caspase-8, -9, and -3 and PARP; assay: Western blot of caspases and PARP cleavage
Method: (A) Cells were treated with indicated concentration of YC-1 for 6, 24, and 48 h. Cell viability was determined by MTT method. (B) MDA-MB-468 cells were treated with 3 μM YC-1 for 0, 6, and 12 h, and then stained with fluorescence diacetate (FDA) and propidium iodide (PI). Cell morphology was assessed by fluorescence microscopy with magnification ×20 (upper 3 rows) or ×40 (lowest row). (C) MDA-MB-468 cells were treated with 3 μM YC-1 for 24 h, cells were lysed and subjected to western blot analysis described in Materials and Methods. β-actin is a loading control. Blots were representative of results from three independent experiments. (D) Cells were treated with vehicle (DMSO, as control) or 3 μM YC-1 for 6 h. The cell cycles were analyzed by flow cytometry. […]
(A)(B) Cells were treated with indicated concentration of YC-1 for 24 h (A) or 3 μM of YC-1 for indicated time (B). […] The levels of protein expression were quantitated and shown under blots. […] (D)(E) After 4 days of EZH2 knockdown, cells were incubated with 3 μM YC-1 for 4 h and detected cell viability (D) and protein contents (E). […]
Cells were lysed in PBS containing proteinase inhibitor and phosphatase inhibitors and sonication. Protein concentration was measured using the Bio-Rad protein assay kit (Bio-Rad Laboratories, Hercules, Calif., USA). […] The band intensities were analyzed and quantified by the Multi Gauge software (Fuji Photo Film).

[2] = system: MDA-MB-468 cells; assay: Colony formation (clonogenic) assay
Method: (A) Cells were treated with indicated concentration of YC-1 for 6, 24, and 48 h. Cell viability was determined by MTT method. (B) MDA-MB-468 cells were treated with 3 μM YC-1 for 0, 6, and 12 h, and then stained with fluorescence diacetate (FDA) and propidium iodide (PI). Cell morphology was assessed by fluorescence microscopy with magnification ×20 (upper 3 rows) or ×40 (lowest row). (C) MDA-MB-468 cells were treated with 3 μM YC-1 for 24 h, cells were lysed and subjected to western blot analysis described in Materials and Methods. β-actin is a loading control. Blots were representative of results from three independent experiments. (D) Cells were treated with vehicle (DMSO, as control) or 3 μM YC-1 for 6 h. The cell cycles were analyzed by flow cytometry. (E) Cells were treated with indicated concentration of YC-1 and then performed with clonogenic assay.
After exposure to YC-1, cells were collected and washed extensively with PBS. Five hundred cells per well was seeded onto 6-well plates and maintained in a 37° C., 5% CO2 incubator. Three weeks later, colonies were fixed with formaldehyde (3.7%, v/v) and stained with crystal violet (0.5%, w/v), then counted.

[3] = system: EZH2; assay: Western blot of EZH2 protein expression in MDA-MB-468 cells
Method: Cells were harvested and performed with western blotting analysis. […] The levels of protein expression were quantitated and shown under blots. (C) Cells were transfected with EZH2 shRNA for 0, 1, 2, 3, and 4 days and collected for determination of cell viability (left) and protein expression (right). (D)(E) After 4 days of EZH2 knockdown, cells were incubated with 3 μM YC-1 for 4 h and detected cell viability (D) and protein contents (E). (F) Tumor specimens were isolated and protein was extracted for western blot analysis.
(§1) Cells were lysed in PBS containing proteinase inhibitor and phosphatase inhibitors and sonication. Protein concentration was measured using the Bio-Rad protein assay kit (Bio-Rad Laboratories, Hercules, Calif., USA). Lysate protein was separated by electrophoresis of SDS-PAGE and transferred to Immobilon P membrane (EMD Millipore). The membranes were incubated with appropriate primary antibodies and horseradish peroxidase-conjugated secondary antibodies (EMD Millipore). The signaling was visualized using Chemiluminescence substrate kit (EMD Millipore) and collected by the Luminesence image analyzer, LAS4000 (Fuji Photo Film Co., Tokyo, Japan). The band intensities were analyzed and quantified by the Multi Gauge software (Fuji Photo Film).

[4] = system: EZH2 mRNA; assay: Quantitative real-time RT-PCR of EZH2 mRNA; conditions: 3 μM YC-1, 3 or 6 h; less inhibition than protein levels
Method: Cells were treated with 3 μM YC-1 for 3 or 6 h. Cells were collected for the detection of EZH2 mRNA expression with quantitative real-time RT-PCR described in Materials and Methods.
Total RNA was isolated from MDA-MB-468 cells treated with YC-1 and extracted using TRIzol® Reagent (Invitrogen). cDNA strain was reverse transcribed by oligo dT(15) using M-MLV reverse transcriptase (Invitrogen) according to the manufacturer's instructions. Quantitative real-time RT-PCR analysis was performed by a LightCycler® 480 II RTPCR system (Roche Applied Sciences, Manheim, Germany) using Fast Start DNA Master Plus SYBR Green I kit (Roche Applied Sciences). PCR primers were as follows: human EZH2 (NM_004456.4) 5′-[…]-3′ (Forward), 5′-[…]-3′ (Reverse); human GAPDH (NM_002046.3) 5′-[…]-3′ (Forward); 5′-[…]-3′ (Reverse). The expression level of EZH2 mRNA was normalized against the level of GAPDH mRNA in the same sample.

[5] = system: EGFR; assay: Western blot of EGFR phosphorylation and expression
Method: as §1, with “Cells were incubated with 3 μM YC-1 for indicated time. Cells were harvested and subjected to western blot analysis for the detection of protein expression. Cells” for “Cells”

[6] = system: EZH2-c-Cbl-ERK; assay: Co-immunoprecipitation of c-Cbl and EZH2; conditions: 3 μM YC-1 with MG-132; after 1 h, maximum at 2 h
Method: (A) c-Cbl knockdown MDA-MB-468 cells were treated with 3 μM YC-1 for 4 h. Cell were harvested for detection of protein expression. (B) Cells were treated with 3 μM YC-1 for indicated time. Cells were collected and c-Cbl phosphorylation was detected. (C) Cells were pretreated with MG-132 (3 μM) or NH4Cl (30 μM) for 1 h followed by 3 μM YC-1 induction for 6 h. (D) Cells were pretreated with MG-132 and followed by 3 μM YC-1 induction for indicated time. Cells were harvested and lysed for immunoprecipitation assay. The association between c-Cbl and EZH2 were determined by western blotting analysis and probed with anti-EZH2 or anti-c-Cbl antibody. Membranes were stripped and reprobed with anti-c-Cbl or anti-EZH2 antibody to check the input. (E) Cells were preincubated with or without PD98059 (10 μM) in the presence of MG-132 for 1 h prior to 2 h-treatment of 3 μM YC-1. Then cells were collected and lysate protein was subjected for the detection of the c-Cbl-EZH2 complexes.
Cells were lysed with RIPA buffer (50 mM Tris-C1, pH 7.5, 1% Igepal CA-630, 150 mM NaCl, 1 mM EDTA, 1 mM Na3VO4, 1 mM NaF, 1 mM PMSF, 10 μg/ml of leupeptin, aprotinin, and pepstatin A) for 30 min at 4° C. One milligram of cell lysate was incubated with anti-EZH2 or anti-c-Cbl antibody and protein A-Sepharose beads, then gently rotated at 4° C. overnight. […]

IC50 ([3]; 24 h-incubation, MDA-MB-468, read-out: IC50, inhibition of EZH2 expression): 540 ± 40 nM
SMILES: OCc1ccc(-c2nn(Cc3ccccc3)c3ccccc23)o1 [YC-1, 3-(5′-hydroxymethyl-2′-furyl)-1-benzyl indazole]
earliest effects of caspase-3 activation detected ([1]; 3 μM YC-1): 4 h
cleavage of caspases and PARP ([1]; 3 μM YC-1, 24 h): clearly caused the cleavage of caspases and PARP
clonogenic activity [2]: potent ability in attenuation of tumor formation
inhibition of EZH2 protein ([3]; 3 μM YC-1, 2 h): about 18%
mRNA expression of EZH2 [4]: inhibitory effect
EGFR phosphorylation ([5]; 3 μM YC-1): rapidly induced EGFR phosphorylation
EGFR protein expression ([5]; 3 μM YC-1, after 6 h treatment): significant decrease
complex formation of EZH2-c-Cbl-ERK [6]: induced the complex formation
